In patent US20250228865A1, “COMPOUNDS FOR ENHANCING READ THROUGH OF GENES CONTAINING PREMATURE TERMINATION CODONS AND METHODS FOR MAKING AND USING THE SAME” (Sanofi US Services Inc., priority 2022, published 2025):
pEC50: −log10 of the molar value.

Tests used:
[1] = system: recombinant human CFTR carrying the premature stop codon (PTC) mutation G542X; experiment: CFTR-PTC mutant translation readthrough, Nanoluc tagged CFTR luminescence (G542X cell line); assay type: cell-based; conditions: in combination with G418, G542X cell line; for CFTR G542X ACTIVITY Fold 10 μM G-418: fold over 10 μM G-418; for pEC50: 16HBE cells
Summary of the method: (§1)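 16HBE cells stably expressing Nanoluc-tagged human CFTR with G542X or R1162X, in medium with 3 μM VX-809, treated 48 h at 37 °C with compound (10-point, 2-fold, top 50 μM final) alone or with 10 μM G418. Live-cell Nanoluc luminescence normalised to a maximally effective G418 (125-250 μM).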

[2] = system: recombinant human CFTR carrying the premature stop codon (PTC) mutation R1162X; experiment: CFTR-PTC mutant translation readthrough, Nanoluc tagged CFTR luminescence (R1162X cell line); assay type: cell-based; conditions: for CFTR R1162X ACTIVITY Fold 10 μM G-418: fold over 10 μM G-418, in combination with G418; for pEC50: in combination with G418, 16HBE cells, read-out: CFTR R1162X ACTIVITY EC50
Summary of the method: as §1

Compound | CFTR G542X ACTIVITY Fold 10 μM G-418 [1] | pEC50 [1] | CFTR R1162X ACTIVITY Fold 10 μM G-418 [2] | pEC50 [2]
OCC1CN(c2ccc(OCc3c(Cl)cccc3Cl)cc2)CCO1 (stereo not shown) [[4-[4-[(2,6-dichlorophenyl)methoxy]phenyl]morpholin-2-yl]methanol] | A′ (A′ = ≥10X) | 5.00 to 6.00 | A′ (A′ = ≥10X) | 5.00 to 6.00
OCc1cn(-c2ncc(OCc3c(Cl)cccc3Cl)cn2)cn1 [[1-[5-[(2,6-dichlorophenyl)methoxy]pyrimidin-2-yl]imidazol-4-yl]methanol] | A′ (A′ = ≥10X) | > 6.00 | A′ (A′ = ≥10X) | 5.00 to 6.00
Clc1cccc(Cl)c1COc1cnc(N2CC3CC2CO3)nc1 (stereo not shown) | A′ (A′ = ≥10X) | 5.00 to 6.00 | A′ (A′ = ≥10X) | 5.00 to 6.00
OCCn1ccc(Nc2ccc(OCc3c(Cl)cccc3Cl)cn2)n1 [2-[3-[[5-[(2,6-dichlorophenyl)methoxy]-2-pyridyl]amino]pyrazol-1-yl]ethanol] | A′ (A′ = ≥10X) | 5.00 to 6.00 | A′ (A′ = ≥10X) | 5.00 to 6.00
Cc1cccc(C(F)(F)F)c1COc1cnc(N2CCNCC2)nc1 [5-{[2-methyl-6-(trifluoromethyl)phenyl]methoxy}-2-(piperazin-1-yl)pyrimidine] | A′ (A′ = ≥10X) | 5.00 to 6.00 | A′ (A′ = ≥10X) | 5.00 to 6.00
OCCN1CCN(c2ncc(OCc3c(Cl)cccc3Cl)cn2)CC1 [2-[4-[5-[(2,6-dichlorophenyl)methoxy]pyrimidin-2-yl]piperazin-1-yl]ethanol] | A′ (A′ = ≥10X) | 5.00 to 6.00 | A′ (A′ = ≥10X) | 5.00 to 6.00
OCc1cn(-c2ncc(OCc3c(Cl)cccc3Cl)cn2)nn1 [[1-[5-[(2,6-dichlorophenyl)methoxy]pyrimidin-2-yl]triazol-4-yl]methanol] | A′ (A′ = ≥10X) | 5.00 to 6.00 | A′ (A′ = ≥10X) | 5.00 to 6.00
OCc1cn(-c2ccc(OCc3c(Cl)cccc3C(F)(F)F)cc2)nn1 [[1-[4-[[2-chloro-6-(trifluoromethyl)phenyl]methoxy]phenyl]triazol-4-yl]methanol] | A′ (A′ = ≥10X) | 5.00 to 6.00 | A′ (A′ = ≥10X) | 5.00 to 6.00
OC[C@@H]1CN(c2ncc(OCc3c(Cl)cccc3Cl)cn2)CC[C@@H]1O (racemic) | A′ (A′ = ≥10X) | > 6.00 | A′ (A′ = ≥10X) | 5.00 to 6.00
Cc1cccc(C(F)(F)F)c1COc1cnc(-n2ncc(-c3ccccn3)n2)nc1 | A′ (A′ = ≥10X) | > 6.00 | A′ (A′ = ≥10X) | > 6.00
OCc1cc(-c2ncc(OCc3c(Cl)cccc3Cl)cn2)[nH]n1 [Compound 252, [5-[5-[(2,6-dichlorophenyl)methoxy]pyrimidin-2-yl]-1H-pyrazol-3-yl]methanol] | A′ (A′ = ≥10X) | 5.00 to 6.00 | B′ (B′ = ≥5X to <10X) | 5.00 to 6.00
CC1(C)NC(=O)N(c2ccc(OCc3c(Cl)cccc3C(F)(F)F)cn2)C1=O | A′ (A′ = ≥10X) | 5.00 to 6.00 | B′ (B′ = ≥5X to <10X) | 5.00 to 6.00
NC(=O)CN1CCN(c2ncc(OCc3c(Cl)cccc3Cl)cn2)CC1 [2-[4-[5-[(2,6-dichlorophenyl)methoxy]pyrimidin-2-yl]piperazin-1-yl]acetamide] | B′ (B′ = ≥5X to <10X) | 5.00 to 6.00 | B′ (B′ = ≥5X to <10X) | 5.00 to 6.00
Cc1cccc(C(C)(F)F)c1COc1ccc(N2CC(CO)NC2=O)nc1 (stereo not shown) | A′ (A′ = ≥10X) | 5.00 to 6.00 | A′ (A′ = ≥10X) | 5.00 to 6.00
O=C1O[C@@H](CO)CN1c1ccc(OCc2c(Cl)cccc2Cl)cc1 [(5R)-3-[4-[(2,6-dichlorophenyl)methoxy]phenyl]-5-(hydroxymethyl)oxazolidin-2-one] | A′ (A′ = ≥10X) | 5.00 to 6.00 | A′ (A′ = ≥10X) | 5.00 to 6.00
Cc1cccc(C(F)(F)F)c1COc1cnc(-n2nnc3ccccc32)nc1 [1-[5-[[2-methyl-6-(trifluoromethyl)phenyl]methoxy]pyrimidin-2-yl]benzotriazole] | A′ (A′ = ≥10X) | > 6.00 | A′ (A′ = ≥10X) | > 6.00
O=CNCC1CCCN(c2ncc(OCc3c(Cl)cccc3Cl)cn2)C1 (stereo not shown) | B′ (B′ = ≥5X to <10X) | 5.00 to 6.00 | B′ (B′ = ≥5X to <10X) | 5.00 to 6.00
O=C(O)C1CN(c2ncc(OCc3c(Cl)cccc3C(F)(F)F)cn2)CCO1 (stereo not shown) [4-[5-[[2-chloro-6-(trifluoromethyl)phenyl]methoxy]pyrimidin-] | C′ (C′ = <5X) | 5.00 to 6.00 |  | > 6.00

Compound | CFTR G542X ACTIVITY Fold 10 μM G-418 [1] | pEC50 [1] | CFTR R1162X ACTIVITY Fold 10 μM G-418 [2] | pEC50 [2]
Cc1cccc(C(F)(F)F)c1COc1cnc(N2CC(=O)N(CO)C2=O)nc1 | A′ (A′ = ≥10X) | 5.00 to 6.00 | A′ (A′ = ≥10X) | 5.00 to 6.00
CNC(=O)N1CCN(c2ncc(OCc3c(C)cccc3C(F)(F)F)cn2)CC1 | A′ (A′ = ≥10X) | > 6.00 | A′ (A′ = ≥10X) | > 6.00
O=C(O)C1CCN(c2ncc(OCc3c(Cl)cccc3C(F)(F)F)cn2)CC1 [1-[5-[[2-chloro-6-(trifluoromethyl)phenyl]methoxy]pyrimidin-] | A; | 5.00 to 6.00 | A′ (A′ = ≥10X) | 5.00 to 6.00
OC[C@@H]1CN(c2ncc(OCc3c(Cl)cccc3Cl)cn2)CCO1 [[(2S)-4-[5-[(2,6-dichlorophenyl)methoxy]pyrimidin-2-yl]morpholin-2-yl]methanol] | A′ (A′ = ≥10X) | > 6.00 | A′ (A′ = ≥10X) | > 6.00
O=C(O)C1CCN(c2ncc(OCc3c(Cl)cccc3C(F)(F)F)cn2)CC1 [1-(5-{[2-chloro-6-(trifluoromethyl)phenyl]methoxy}pyrimidin-] | C′ (C′ = <5X) | 5.00 to 6.00 | C′ (C′ = <5X) | 5.00 to 6.00
COC1CCN(c2ncc(OCc3c(Cl)cccc3Cl)cn2)C1 (stereo not shown) [5-[(2,6-dichlorophenyl)methoxy]-2-(3-methoxypyrrolidin-1-yl)pyrimidine] | A′ (A′ = ≥10X) | 5.00 to 6.00 | B′ (B′ = ≥5X to <10X) | 5.00 to 6.00
OCc1cn(-c2ncc(OCc3c(Cl)cccc3C(F)(F)F)cn2)nn1 | A′ (A′ = ≥10X) | 5.00 to 6.00 | A′ (A′ = ≥10X) | 5.00 to 6.00
OCC1CN(c2ccc(OCc3c(Cl)cccc3Cl)cn2)CCO1 (stereo not shown) [[4-[5-[(2,6-dichlorophenyl)methoxy]-2-pyridyl]morpholin-2-yl]methanol] | A′ (A′ = ≥10X) | 5.00 to 6.00 | A′ (A′ = ≥10X) | 5.00 to 6.00
Cc1ccc(C(F)(F)F)c(COc2ccc(-n3cc(CO)nn3)cc2)c1F | B′ (B′ = ≥5X to <10X) | 5.00 to 6.00 | B′ (B′ = ≥5X to <10X) | < 5.00
Cc1cccc(C(F)(F)F)c1COc1ccc(-n2cnc(C(N)=O)n2)cc1 | B′ (B′ = ≥5X to <10X) | > 6.00 | A′ (A′ = ≥10X) | > 6.00
O=C(O)c1ncn(-c2ccc(OCc3c(Cl)cccc3C(F)(F)F)cn2)n1 [1-(5-{[2-chloro-6-(trifluoromethyl)phenyl]methoxy]pyridin-2-] | C′ (C′ = <5X) | 5.00 to 6.00 |  | < 5.00
CC(C)C1NC(=O)N(c2ncc(OCc3c(Cl)cccc3Cl)cn2)C1=O (stereo not shown) | A′ (A′ = ≥10X) | < 5.00 | B′ (B′ = ≥5X to <10X) | < 5.00
O=C1OC(CO)CN1c1ccc(OCc2c(Cl)cc(F)cc2Cl)cc1 (stereo not shown) | B′ (B′ = ≥5X to <10X) | < 5.00 | B′ (B′ = ≥5X to <10X) | < 5.00
NC(=O)C1CN(c2ncc(OCc3c(Cl)cccc3C(F)(F)F)cn2)CCO1 (stereo not shown) | A′ (A′ = ≥10X) | 5.00 to 6.00 | A′ (A′ = ≥10X) | 5.00 to 6.00
OC[C@@H]1CN(c2ncc(OCc3c(Cl)cccc3Cl)cn2)C[C@@H](C(F)(F)F)O1 (racemic) | A′ (A′ = ≥10X) | > 6.00 | B′ (B′ = ≥5X to <10X) | 5.00 to 6.00
NC(=O)N1CCC(c2ncc(OCc3c(Cl)cccc3C(F)(F)F)cn2)CC1 | A′ (A′ = ≥10X) | > 6.00 | A′ (A′ = ≥10X) | > 6.00
O=C1Cc2cc(NCc3c(Cl)cccc3Cl)ccc2C(=O)N1 [Compound 303, 6-[(2,6-dichlorophenyl)methylamino]-4H-isoquinoline-1,3-dione] |  | < 5.00 |  | < 5.00
